Activity calls are given as the source filed them.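 How the source made its calls: active means compounds giving half or more protection of infected cells from virus-caused growth loss, again on retest; inactive means the rest.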 Where a SMILES comes first, the peptide text is derived from it. Bridges are numbered along the chain shown (N, C = ends). [ ]: non-standard residue; d: D form. The star is where a group is joined. Cbz = O=C(OCc1ccccc1)*; Dab = NCC[CH](N)C(=O)O; Bn = c1ccc(C*)cc1
System: CEM cells HIV-1 protection, formazan growth assay
Assay: NCI AIDS Antiviral Assay
Details: for IC50: measured here: growth of uninfected CEM cells
Procedure, shortened: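 CEM (human) cells, HIV-1 infected vs uninfected, 5-point dosing, formazan growth read-out. Retest threshold 50% protection.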

| Structure (SMILES) | EC50 | IC50 | outcome |
| --- | --- | --- | --- |
| COCOc1cc(C)c(C(=O)Oc2cc(C)c(C(=O)OC)c(OCOC)c2C)c(OCOC)c1C=O | > 200 µM | 26.9 µM |  |
| CCOC(=O)/C(F)=C/c1cccc(C#N)c1 | > 117 µM | > 117 µM |  |
| CCOC(=O)c1ccc2c(=O)n3c(C(=O)OCC)ccc3c(=O)n12 | 162 µM | > 200 µM |  |
| C[CH2][Pb]([CH2]C)([CH2]C)[O]C(=O)C(F)(F)F | > 200 µM | 31.6 µM |  |
| Nc1ccc(N)c(N2C(=O)c3ccccc3C2=O)c1 | > 200 µM | > 200 µM |  |
| CC(C)CC1NC(=O)C(Cc2ccccc2)NC(=O)C(Cc2ccccc2)NC(=O)C(NC(=O)C(Cc2ccc(OCc3ccccc3)cc2)NC(=O)OCc2ccccc2)CCNC1=O (stereo unspecified) (Cbz-Y(Bn)[Dab]FFL; lactam 2-C; configuration not given here) | > 100 µM | > 100 µM |  |
| O=C1Nc2cc(F)ccc2C1=O | > 1510 µM | 251 µM |  |
| Cc1cc2c(cc1Cl)S(=O)(=O)OC(c1ccc([N+](=O)[O-])cc1)=N2 | > 200 µM | 115 µM |  |
| C[C@@H]1S[C@H](c2c(F)cccc2F)n2c1nc1ccccc12 | 29.5 µM | 43.7 µM |  |
| CCOP(=O)(OCC)C(c1ccccc1)N(C(=O)NC(F)(F)F)c1ccc(C)cc1 (stereo unspecified) | > 200 µM | > 200 µM |  |
| Cc1cc(C)nc(NS(=O)(=O)c2ccc(NC(=O)COC(=O)c3cccc4c(=O)c5ccccc5[nH]c34)cc2)n1 |  |  | inactive |
| CC(=O)[CH-]C(C)=O.CC(=O)[CH-]C(C)=O.N=CC=N.[Sn+2] | > 69.2 µM | 1.45 µM |  |
| Cc1cc(NS(=O)(=O)c2ccc(Nc3c4ccccc4nc4c(C(=O)O)cccc34)cc2)no1 | > 200 µM | 178 µM |  |
| COc1cccc2c1OC1c3ccccc3OCC1(O)C2 (stereo unspecified) |  |  | inactive |
| O=c1[nH]/c(=C/c2ccc3c(c2)OCO3)c(=O)[nH]/c1=C/c1ccc2c(c1)OCO2 |  |  | inactive |
| COc1cc(C=NC2CCCCC2)cc(OC)c1OC | > 182 µM | 95.5 µM |  |
| CC(C)=CCCC1(C)C=Cc2c(ccc3c(C)noc23)O1 (stereo unspecified) | > 18.2 µM | > 18.2 µM |  |

| Structure (SMILES) | EC50 | IC50 | outcome |
| --- | --- | --- | --- |
| COc1ccc(NC(=O)Nc2onc(C)c2C)c(Cl)c1 | > 191 µM | 151 µM |  |
| O=C(O)C(Cc1ccccc1)NC(=O)C1CCCN1C(=O)OCc1ccccc1 (stereo not drawn) (Cbz-Pro-Phe-OH; configuration not given here) | > 631 µM | > 631 µM |  |
| CCOc1ccc(NC(=O)C(=O)C2C(=O)Nc3ccccc3S2=O)cc1 (stereo unspecified) | > 50.1 µM | > 50.1 µM |  |
| CC(=O)OC(OC(C)=O)n1cc(C=O)c2ccccc21 | > 200 µM | > 200 µM |  |
| COc1ccc(C2N(c3ccc(F)c([N+](=O)[O-])c3)C(=O)N3C(c4ccc(OC)cc4)N(c4ccc(F)c([N+](=O)[O-])c4)C(=O)N23)cc1 (stereo unspecified) | > 200 µM | 33.9 µM |  |
| Cc1cc(S(=O)(=O)O)c(NC(=O)C(=O)Cc2cc(=O)oc3cc(O)ccc23)cc1Cl | > 79.4 µM | > 79.4 µM |  |
| CN1CCN(CCC=C2c3ccccc3Sc3ccc(S(=O)(=O)N(C)C)cc32)CC1 | > 200 µM | 11.7 µM |  |
| OCCN1CCN2C=C(C3CCCC4N(CCO)CCN34)CCC21 (stereo unspecified) | > 741 µM | 33.9 µM |  |
| O=S(=O)(CC#CCO)c1ccc2ccccc2c1 |  |  | inactive |
| Cc1ccc(S(=O)(=O)C2=c3nc4ccccc4cc3=C3C(=O)c4ccccc4C(=O)C32)cc1 (stereo unspecified) | > 21.9 µM | > 21.9 µM |  |
| N#CCC(=O)N/N=C1\C(=O)N(c2ccc(Cl)cc2)C(=O)C(=O)C1c1nc2ccccc2o1 (stereo unspecified) |  |  | inactive |
| COc1cc(C=C2C(=O)OC(C)(C)OC2=O)cc(OC)c1OC | > 776 µM | 83.2 µM |  |
| O=c1[nH]c(=O)n(C2CC(O)C(CO)O2)cc1NN=NCCCc1ccccc1 (stereo unspecified) | > 200 µM | > 200 µM |  |
| COC(=O)CC12C=CC3(OO1)C(C)(C)CCCC3(C)O2 (stereo unspecified) | > 200 µM | 174 µM |  |
| S=C(S)N1CCN(c2cccc(Cl)c2)CC1 | > 200 µM | 182 µM |  |
| CC1(C)OC2OC(COC(=O)c3ccccc3)C(=O)C2O1 (stereo unspecified) | > 200 µM | 13.8 µM |  |

Source: PubChem BioAssay AID179 (DTP/NCI, 2004)
